The record followed here is ChEMBL document CHEMBL1134304, “Discovery of novel p-arylthio cinnamides as antagonists of leukocyte function-associated antigen-1/intercellular adhesion molecule-1 interaction. 4. Structure-activity relationship of substituents on the benzene ring of the cinnamide” (J Med Chem, 2001).

The target of test [1] is T1, Integrin alpha-L (Homo sapiens, UniProt P20701).
T1 sequence (P20701 whole entry): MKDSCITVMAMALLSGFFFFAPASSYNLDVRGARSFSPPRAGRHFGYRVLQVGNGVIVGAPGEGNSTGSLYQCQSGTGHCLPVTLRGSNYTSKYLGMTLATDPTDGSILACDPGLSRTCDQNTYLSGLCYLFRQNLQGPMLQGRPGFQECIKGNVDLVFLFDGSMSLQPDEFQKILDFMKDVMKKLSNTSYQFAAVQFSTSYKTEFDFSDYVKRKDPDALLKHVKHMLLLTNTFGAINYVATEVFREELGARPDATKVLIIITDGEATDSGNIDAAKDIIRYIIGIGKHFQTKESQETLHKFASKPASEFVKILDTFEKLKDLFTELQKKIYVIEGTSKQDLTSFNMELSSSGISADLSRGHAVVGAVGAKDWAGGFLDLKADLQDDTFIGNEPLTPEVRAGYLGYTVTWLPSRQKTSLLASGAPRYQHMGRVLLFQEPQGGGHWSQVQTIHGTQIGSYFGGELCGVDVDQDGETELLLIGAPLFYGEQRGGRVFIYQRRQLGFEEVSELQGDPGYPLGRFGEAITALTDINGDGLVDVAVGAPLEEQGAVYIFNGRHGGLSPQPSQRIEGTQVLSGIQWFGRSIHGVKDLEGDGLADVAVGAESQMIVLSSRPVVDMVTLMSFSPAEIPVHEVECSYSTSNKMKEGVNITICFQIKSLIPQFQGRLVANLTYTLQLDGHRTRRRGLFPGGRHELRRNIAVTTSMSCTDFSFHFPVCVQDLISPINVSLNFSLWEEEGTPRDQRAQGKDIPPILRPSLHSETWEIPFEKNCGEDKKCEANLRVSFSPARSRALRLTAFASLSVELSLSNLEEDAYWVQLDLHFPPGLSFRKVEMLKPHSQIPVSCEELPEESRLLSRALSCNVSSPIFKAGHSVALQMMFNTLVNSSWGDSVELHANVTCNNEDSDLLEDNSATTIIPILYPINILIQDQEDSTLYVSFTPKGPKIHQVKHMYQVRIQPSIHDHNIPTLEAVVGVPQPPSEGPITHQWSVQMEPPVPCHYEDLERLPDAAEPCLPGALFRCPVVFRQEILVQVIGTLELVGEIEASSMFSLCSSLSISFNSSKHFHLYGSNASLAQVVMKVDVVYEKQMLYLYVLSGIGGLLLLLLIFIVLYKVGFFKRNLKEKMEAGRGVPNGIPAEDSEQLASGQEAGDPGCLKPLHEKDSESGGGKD
Nature of the test: Inhibition of intercellular adhesion molecule-1 (ICAM-1) binding to recombinant LFA-1, range (80-110).

For test [2], the target named is T1, Integrin alpha-L. Kind of test: Inhibition of intercellular adhesion molecule-1 (ICAM-1) binding to recombinant LFA-1.
For test [3], the target named is T2, Intercellular adhesion molecule (ICAM-1), Integrin alpha-L/beta-2 (Homo sapiens, UniProt P05107+P20701). Nature of the test: Inhibition of LFA-1 mediated JY-8 cell adhesion to ICAM-1. The test is classed as functional, cell-based.
Test [4] deals with T1, Integrin alpha-L. Nature of the test: Inhibition of intercellular adhesion molecule-1 (ICAM-1) binding to recombinant LFA-1, range(6-13).
Test [5] deals with T1, Integrin alpha-L. Nature of the test: Inhibition of intercellular adhesion molecule-1 (ICAM-1) binding to recombinant LFA-1, range (2500-11500).
In test [6] the target is T1, Integrin alpha-L. Kind of test: Inhibition of intercellular adhesion molecule-1 (ICAM-1) binding to recombinant LFA-1, range (4-7).
Test [7] concerns the target T2, Intercellular adhesion molecule (ICAM-1), Integrin alpha-L/beta-2. Kind of test: Inhibition of LFA-1 mediated JY-8 cell adhesion to ICAM-1, range (2-2). The test is classed as functional, cell-based.
For test [8], the target named is T1, Integrin alpha-L. Nature of the test: Inhibition of intercellular adhesion molecule-1 (ICAM-1) binding to recombinant LFA-1, range(760-2620).
Test [9] concerns the target T1, Integrin alpha-L. Nature of the test: Inhibition of intercellular adhesion molecule-1 (ICAM-1) binding to recombinant LFA-1, range (10400-11300).
In test [10] the target is T1, Integrin alpha-L. Nature of the test: Inhibition of intercellular adhesion molecule-1 (ICAM-1) binding to recombinant LFA-1, range(40-60).
Test [11] deals with T1, Integrin alpha-L. Nature of the test: Inhibition of intercellular adhesion molecule-1 (ICAM-1) binding to recombinant LFA-1, range(100-110).
Test [12] deals with T2, Intercellular adhesion molecule (ICAM-1), Integrin alpha-L/beta-2. Nature of the test: Inhibition of LFA-1 mediated JY-8 cell adhesion to ICAM-1, range (6-10). The format is functional, cell-based.
In test [13] the target is T1, Integrin alpha-L. Nature of the test: Inhibition of intercellular adhesion molecule-1 (ICAM-1) binding to recombinant LFA-1, range(6-9).
Test [14] concerns Mus musculus. Nature of the test: Inhibition of allergen induced neutrophil influx in mouse lung at 1 mg/kg. The test is classed as functional.
Test [15] deals with T3, Intercellular adhesion molecule (ICAM-1), Integrin alpha-L/beta-2 (Homo sapiens) (UniProt P20701+P05362+P05107). The note with it: Rattus norvegicus.
In test [16] the test system is Mus musculus. Kind of test: Inhibition of allergen induced neutrophil influx in mouse lung at 10 mg/kg. The test is classed as functional.
Test [17] has as its target T2, Intercellular adhesion molecule (ICAM-1), Integrin alpha-L/beta-2.
Test [18] relates to Mus musculus. Nature of the test: Inhibition of allergen induced neutrophil influx in mouse lung at 3 mg/kg. The format is functional.
Test [19] deals with T1, Integrin alpha-L.
The subject of test [20] is Mus musculus. Kind of test: Inhibition of allergen induced total cell influx in mouse lung at 3 mg/kg. The format is functional.
Test [21] has as its target T3, Intercellular adhesion molecule (ICAM-1), Integrin alpha-L/beta-2 (Homo sapiens). The conditions noted are these: Rattus norvegicus. This is another data set of the same source.
Test [22] relates to Mus musculus. Nature of the test: Inhibition of allergen induced total cell influx in mouse lung at 1 mg/kg. The test is classed as functional.
The test system of test [23] is Mus musculus. Nature of the test: Inhibition of allergen induced total cell influx in mouse lung at 10 mg/kg. The format is functional.
Test [24] deals with T1, Integrin alpha-L. This is another data set of the same source.
The target in test [25] is T2, Intercellular adhesion molecule (ICAM-1), Integrin alpha-L/beta-2. This is another data set of the same source.
Test [26] has as its target T1, Integrin alpha-L. The source holds these as a separate data set.
Test [27] concerns the target T2, Intercellular adhesion molecule (ICAM-1), Integrin alpha-L/beta-2. Kind of test: Inhibition of LFA-1 mediated JY-8 cell adhesion to ICAM-1, range (2-30). The test is classed as functional, cell-based.
The target of test [28] is T1, Integrin alpha-L. Kind of test: Inhibition of intercellular adhesion molecule-1 (ICAM-1) binding to recombinant LFA-1, range (6-12).
The target of test [29] is T1, Integrin alpha-L. Nature of the test: Inhibition of intercellular adhesion molecule-1 (ICAM-1) binding to recombinant LFA-1, range (6-19).
The target in test [30] is T2, Intercellular adhesion molecule (ICAM-1), Integrin alpha-L/beta-2. Nature of the test: Inhibition of LFA-1 mediated JY-8 cell adhesion to ICAM-1, range (3-18). The format is functional, cell-based.

Each structure is given as a SMILES string.

What is called IC50 is the concentration that inhibits the measured activity by half.

T2 sequence (P05362 whole entry, one chain of several, further chain): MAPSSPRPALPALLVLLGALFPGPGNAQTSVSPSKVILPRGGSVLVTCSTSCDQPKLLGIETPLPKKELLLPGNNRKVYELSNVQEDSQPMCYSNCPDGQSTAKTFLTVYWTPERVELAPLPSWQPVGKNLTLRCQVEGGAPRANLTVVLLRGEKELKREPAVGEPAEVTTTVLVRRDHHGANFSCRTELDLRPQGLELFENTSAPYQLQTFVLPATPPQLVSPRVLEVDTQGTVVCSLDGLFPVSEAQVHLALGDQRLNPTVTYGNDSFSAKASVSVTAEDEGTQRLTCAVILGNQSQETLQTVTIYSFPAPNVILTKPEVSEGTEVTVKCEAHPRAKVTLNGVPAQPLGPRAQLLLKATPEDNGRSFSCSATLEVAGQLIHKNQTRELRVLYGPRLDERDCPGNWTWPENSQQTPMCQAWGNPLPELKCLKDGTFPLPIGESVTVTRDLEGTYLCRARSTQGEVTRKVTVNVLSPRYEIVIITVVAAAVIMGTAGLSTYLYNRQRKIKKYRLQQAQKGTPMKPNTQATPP
T2 sequence (P05107 whole entry, one chain of several): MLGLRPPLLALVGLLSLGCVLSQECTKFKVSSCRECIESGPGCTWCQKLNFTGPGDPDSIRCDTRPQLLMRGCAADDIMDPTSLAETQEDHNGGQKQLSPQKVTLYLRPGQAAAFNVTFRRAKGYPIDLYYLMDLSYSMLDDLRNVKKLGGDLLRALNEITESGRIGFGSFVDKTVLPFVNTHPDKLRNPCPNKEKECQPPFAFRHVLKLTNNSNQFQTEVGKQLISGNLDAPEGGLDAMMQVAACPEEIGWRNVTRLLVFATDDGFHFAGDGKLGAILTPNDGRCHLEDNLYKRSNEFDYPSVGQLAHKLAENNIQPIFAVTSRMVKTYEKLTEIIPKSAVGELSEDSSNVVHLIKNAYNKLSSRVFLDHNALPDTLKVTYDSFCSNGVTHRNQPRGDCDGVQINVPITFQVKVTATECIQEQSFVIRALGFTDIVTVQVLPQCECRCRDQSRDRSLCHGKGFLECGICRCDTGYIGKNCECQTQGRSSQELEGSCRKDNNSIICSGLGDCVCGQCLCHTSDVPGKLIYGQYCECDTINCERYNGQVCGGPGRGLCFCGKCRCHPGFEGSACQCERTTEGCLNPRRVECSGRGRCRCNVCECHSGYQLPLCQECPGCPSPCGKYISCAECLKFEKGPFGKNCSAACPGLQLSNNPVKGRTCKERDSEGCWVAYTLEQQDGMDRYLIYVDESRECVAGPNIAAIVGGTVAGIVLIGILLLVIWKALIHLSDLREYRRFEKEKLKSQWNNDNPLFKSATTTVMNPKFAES

For `COc1ccccc1Sc1ccc(/C=C/C(=O)N2CCOCC2)c(C)c1C`, at Integrin alpha-L [1], the IC50 stood at 90 nM.
Turning to `COc1ccccc1Sc1cc(C)c(/C=C/C(=O)N2CCC(C(=O)O)CC2)cc1[N+](=O)[O-]`, the IC50 at Integrin alpha-L [2] is more than 20 µM.
In the case of `COc1ccccc1Sc1ccc(/C=C/C(=O)N2CCOCC2)c(Cl)c1Cl`, the IC50 in [3] was 6 nM; on Integrin alpha-L [4], 10 nM.
In the case of `COc1ccccc1Sc1ccc(/C=C/C(=O)N2CCN(C(C)=O)CC2)c(F)c1`, on Integrin alpha-L [5], the IC50 amounted to 3.9 µM.
In the case of `O=C(O)C1CCN(C(=O)/C=C/c2ccc(Sc3ccc4c(c3)OCCO4)c(Cl)c2C(F)(F)F)CC1`, the IC50 was 5 nM on Integrin alpha-L [6] and 2 nM in test [7].
Regarding `COc1ccccc1Sc1ccc(/C=C/C(=O)N2CCC(C(=O)O)CC2)c(Cl)c1`, the IC50 on Integrin alpha-L [8] came to 1400 nM.
`COc1ccccc1Sc1cc(C)c(/C=C/C(=O)N2CCC(C(=O)O)CC2)cc1Cl`: the IC50 on Integrin alpha-L [2] is more than 20 µM.
On to `COc1ccccc1Sc1ccc(/C=C/C(=O)N2CCN(C(C)=O)CC2)cc1OC`, for which, on Integrin alpha-L [9], the IC50 was found to be 10.7 µM.
As for `O=C(O)C1CCN(C(=O)/C=C/c2ccc(Sc3ccc4c(c3)OCCO4)c(C(F)(F)F)c2)CC1`, the IC50 at Integrin alpha-L [10] came to 50 nM.
As to `CC(=O)N1CCN(C(=O)/C=C/c2ccc(Sc3cccc(Cl)c3Cl)c([N+](=O)[O-])c2)CC1`, at Integrin alpha-L [11], the IC50 came out at 105 nM.
On to `CC(=O)N1CCN(C(=O)/C=C/c2ccc(Sc3ccc4c(c3)OCCO4)c(Cl)c2Cl)CC1`, for which the IC50 worked out at 8 nM in test [12] and 7 nM at Integrin alpha-L [13].
Take `Cn1ccc2cc(Sc3ccc(/C=C/C(=O)N4CCC(C(=O)O)CC4)c(Cl)c3Cl)ccc21`: the values for the Neutrophils in the test on Mus musculus [14], with Mus musculus [16] and in the test on Mus musculus [18] were 36%, 30% and 31%, respectively. Moreover, the Polymorphonuclear cells came to 4.88 in test [15] and 7.48 in [21]. Also, the IC50 came out at 4 nM in [17] and 6 nM against Integrin alpha-L [19]. In addition, the Total cells in the test with Mus musculus [20] is reported as 147 number ul-1; with Mus musculus [22], 291 number ul-1; in the test with Mus musculus [23], 189 number ul-1.
For `COc1ccccc1Sc1ccc(/C=C/C(=O)N2CCC(C(=O)O)CC2)c(C(F)(F)F)c1C(F)(F)F`, the IC50 against Integrin alpha-L [24] was found to be 5 nM; in [25] it was 0.1 nM.
On Integrin alpha-L [26], `CC(C)c1ccccc1SC1=CC=C(/C=C/C(=O)N2CCC(C(=O)O)CC2)C(F)C1F` (stereo unspecified) yielded an IC50 of 115 nM.
As to `COc1ccccc1Sc1ccc(/C=C/C(=O)N2CCC(C(=O)O)CC2)c(Cl)c1Cl`, the IC50 (in test [27]; at Integrin alpha-L [28]) was 8 nM in each case.
With `CC(C)c1ccccc1Sc1ccc(/C=C/C(=O)N2CCC(C(=O)O)CC2)c(Cl)c1Cl`, the IC50 on Integrin alpha-L [29] turned out to be 10 nM; in test [30], 6 nM.
